According to PubChem BioAssay AID248 (DTP/NCI, 2004):
Inconclusive results and toxic doses are left out.

Test system: L1210 leukemia ip in BDF1 mice, survival T/C
Experiment: NCI In Vivo Anticancer Drug Screen. Data for tumor model L1210 Leukemia (intraperitoneal) in B6D2F1 (BDF1) mice
Settings: endpoint: mean survival time, higher = longer survival
Outline: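 Ratio derived from survival: compound-dosed mice over vehicle-dosed mice, all bearing a transplantable tumor.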

[1] = dose: 100.0 mg/kg/injection, schedule: Q01DX009 (ip), vehicle: Klucel (hydroxypropylcellulose) (HPC)
[2] = dose: 100.0 mg/kg/injection, schedule: Q04DX003 (ip), vehicle: Klucel (hydroxypropylcellulose) (HPC)
[3] = dose: 200.0 mg/kg/injection, schedule: Q01DX009 (ip), vehicle: Klucel (hydroxypropylcellulose) (HPC)
[4] = dose: 200.0 mg/kg/injection, schedule: Q04DX003 (ip), vehicle: Klucel (hydroxypropylcellulose) (HPC)
[5] = dose: 400.0 mg/kg/injection, schedule: Q04DX003 (ip), vehicle: Klucel (hydroxypropylcellulose) (HPC)
[6] = dose: 100.0 mg/kg/injection, schedule: Q01DX001 (ip), vehicle: saline
[7] = dose: 200.0 mg/kg/injection, schedule: Q01DX001 (ip), vehicle: saline
[8] = dose: 100.0 mg/kg/injection, schedule: Q01DX009 (ip), vehicle: saline
[9] = dose: 100.0 mg/kg/injection, schedule: Q04DX003 (ip), vehicle: saline
[10] = dose: 200.0 mg/kg/injection, schedule: Q01DX009 (ip), vehicle: saline
[11] = dose: 200.0 mg/kg/injection, schedule: Q04DX003 (ip), vehicle: saline
[12] = dose: 400.0 mg/kg/injection, schedule: Q01DX009 (ip), vehicle: saline
[13] = dose: 400.0 mg/kg/injection, schedule: Q04DX003 (ip), vehicle: saline
[14] = dose: 100.0 mg/kg/injection, schedule: Q01DX001 (ip), vehicle: carboxymethylcellulose (CMC)
[15] = dose: 200.0 mg/kg/injection, schedule: Q01DX001 (ip), vehicle: carboxymethylcellulose (CMC)

O=C(NC(=S)Nc1ccccc1C(=O)O)c1ccccc1
T/C (dose: 50.0 mg/kg/injection, schedule: Q01DX009 (ip), vehicle: saline sonified): 96 % of control | T/C (dose: 100.0 mg/kg/injection, schedule: Q04DX003 (ip), vehicle: saline sonified): 95 % of control | T/C (dose: 200.0 mg/kg/injection, schedule: Q01DX009 (ip), vehicle: saline sonified): 94 % of control | T/C (dose: 200.0 mg/kg/injection, schedule: Q04DX003 (ip), vehicle: saline sonified): 95 % of control

COc1ccc2c3c1OC1C(OS(=O)(=O)c4ccc(C)cc4)C=CC4C(C2)N(C)CCC341 (stereo unspecified)
T/C (dose: 75.0 mg/kg/injection, schedule: Q01DX001 (ip), vehicle: carboxymethylcellulose (CMC)): 100 % of control | T/C (dose: 75.0 mg/kg/injection, schedule: Q01DX001 (ip), vehicle: saline): 101 % of control | T/C (dose: 150.0 mg/kg/injection, schedule: Q01DX001 (ip), vehicle: carboxymethylcellulose (CMC)): 97 % of control | T/C (dose: 150.0 mg/kg/injection, schedule: Q01DX001 (ip), vehicle: saline): 103 % of control | T/C (dose: 300.0 mg/kg/injection, schedule: Q01DX001 (ip), vehicle: carboxymethylcellulose (CMC)): 95 % of control | T/C (dose: 300.0 mg/kg/injection, schedule: Q01DX001 (ip), vehicle: saline): 104 % of control

CC(=O)OC1CC2(CO2)C2CC3OC3(C)C2C2OC(=O)C(C)C12 (stereo unspecified)
T/C (dose: 12.5 mg/kg/injection, schedule: Q04DX002 (ip), vehicle: saline): 95 % of control | T/C (dose: 25.0 mg/kg/injection, schedule: Q04DX002 (ip), vehicle: saline): 92 % of control | T/C (dose: 50.0 mg/kg/injection, schedule: Q04DX002 (ip), vehicle: saline): 110 % of control | T/C (dose: 75.0 mg/kg/injection, schedule: Q04DX002 (ip), vehicle: saline): 97 % of control | T/C (dose: 100.0 mg/kg/injection, schedule: Q04DX002 (ip), vehicle: saline): 95 % of control | T/C (dose: 115.0 mg/kg/injection, schedule: Q04DX002 (ip), vehicle: saline): 104 % of control | T/C (dose: 170.0 mg/kg/injection, schedule: Q04DX002 (ip), vehicle: saline): 104 % of control | T/C (dose: 200.0 mg/kg/injection, schedule: Q04DX002 (ip), vehicle: saline): 110 % of control | T/C (dose: 400.0 mg/kg/injection, schedule: Q04DX002 (ip), vehicle: saline): 95 % of control

CCC(CO)Nc1nc2ccccc2c2ccccc12 (stereo unspecified)
T/C [1]: 102 % of control | T/C [2]: 98 % of control | T/C [3]: 97 % of control | T/C [4]: 89 % of control | T/C [5]: 88 % of control

O=c1/c(=C\c2ccccc2Cl)sc2n1CCN=2
T/C [6]: 100 % of control | T/C [7]: 105 % of control | T/C (dose: 400.0 mg/kg/injection, schedule: Q01DX001 (ip), vehicle: saline): 105 % of control

CCOC(=O)/C(C)=C\c1c(C)[nH]c(=O)[nH]c1=O
T/C [8]: 87 % of control | T/C [9]: 97 % of control | T/C [10]: 94 % of control | T/C [11]: 94 % of control | T/C [12]: 86 % of control | T/C [13]: 92 % of control

O=[N+]([O-])C1C=CCS1(=O)=O (stereo unspecified)
T/C [9]: 95 % of control | T/C [11]: 96 % of control | T/C [13]: 86 % of control

CN(CCN(C)P(=O)(N1CC1)N1CC1)P(=O)(N1CC1)N1CC1
T/C (dose: 0.62 mg/kg/injection, schedule: Q01DX Z (ip), vehicle: saline): 87 % of control | T/C (dose: 1.25 mg/kg/injection, schedule: Q01DX Z (ip), vehicle: saline): 90 % of control | T/C (dose: 2.5 mg/kg/injection, schedule: Q01DX Z (ip), vehicle: saline): 92 % of control | T/C (dose: 5.0 mg/kg/injection, schedule: Q01DX Z (ip), vehicle: saline): 108 % of control | T/C (dose: 20.0 mg/kg/injection, schedule: Q01DX Z (ip), vehicle: saline): 156 % of control

CC1=Nc2ccccc2N=C(C)C1
T/C [6]: 107 % of control | T/C (dose: 100.0 mg/kg/injection, schedule: Q04DX003 (ip), vehicle: saline with Tween-80): 93 % of control | T/C [7]: 102 % of control | T/C (dose: 200.0 mg/kg/injection, schedule: Q04DX003 (ip), vehicle: saline with Tween-80): 96 % of control

CC(=O)Nc1cc(C)cc(C)n1
T/C (dose: 87.5 mg/kg/injection, schedule: Q01DX009 (ip), vehicle: saline with Tween-80): 113 % of control | T/C (dose: 175.0 mg/kg/injection, schedule: Q01DX009 (ip), vehicle: saline with Tween-80): 102 % of control

COC(=O)C1CCCC23CC(CC12)C(C)(C)C3Br (stereo unspecified)
T/C [1]: 94 % of control | T/C [2]: 97 % of control | T/C [3]: 97 % of control | T/C [4]: 90 % of control | T/C (dose: 400.0 mg/kg/injection, schedule: Q01DX009 (ip), vehicle: Klucel (hydroxypropylcellulose) (HPC)): 90 % of control | T/C [5]: 97 % of control

CN(c1ccccc1)c1ccc([N+](=O)[O-])cc1[N+](=O)[O-]
T/C [14]: 98 % of control | T/C [15]: 102 % of control | T/C (dose: 400.0 mg/kg/injection, schedule: Q01DX001 (ip), vehicle: carboxymethylcellulose (CMC)): 107 % of control

NC(=O)Nc1ncn[nH]1
T/C (dose: 100.0 mg/kg/injection, schedule: Q04DX002 (ip), vehicle: saline with Tween-80): 95 % of control | T/C (dose: 200.0 mg/kg/injection, schedule: Q04DX002 (ip), vehicle: saline with Tween-80): 95 % of control | T/C (dose: 400.0 mg/kg/injection, schedule: Q04DX002 (ip), vehicle: saline with Tween-80): 95 % of control

CSc1ccccc1/C=C(/C(=O)O)c1ccccc1O
T/C (dose: 100.0 mg/kg/injection, schedule: Q01DX001 (ip), vehicle: saline with Tween-80): 103 % of control | T/C (dose: 200.0 mg/kg/injection, schedule: Q01DX001 (ip), vehicle: saline with Tween-80): 97 % of control | T/C (dose: 400.0 mg/kg/injection, schedule: Q01DX001 (ip), vehicle: saline with Tween-80): 103 % of control

Nc1ccc2c(c1)Cc1c(F)ccc(F)c1-2
T/C (dose: 50.0 mg/kg/injection, schedule: Q01DX001 (ip), vehicle: carboxymethylcellulose (CMC)): 107 % of control | T/C [14]: 102 % of control | T/C [15]: 109 % of control

Cc1cc(NS(=O)(=O)c2ccc(N)cc2)no1
T/C [8]: 97 % of control | T/C [9]: 104 % of control | T/C [10]: 94 % of control | T/C [11]: 99 % of control | T/C [12]: 96 % of control | T/C [13]: 114 % of control
